US7488592B2, “Human protein acyl transferases and methods of uses therefor” (Washington University, priority 2003, dated 2009)

Assays:
yeast Erf2p/Erf4p = molecular target: T1, yeast Erf2p/Erf4p (Saccharomyces cerevisiae, UniProt Q06551); experiment: Ras PAT assay: [3H]palmitate incorporation into GST-Ras(HV)CCaaX by partially purified Erf2p/Erf4p, with competitor or inhibitor; format: biochemical, S. cerevisiae; details: 0.5 μM [3H]palmitoyl-CoA; for effectiveness as competitor of the radioactive Ras PAT reaction (in words): unlabeled acyl-CoA at concentrations similar to 8 μM, FIG. 17
T1 construct: made in house; host or cells: S. cerevisiae RJY543 (galactose-induced)
T1 sequence (Q06551 1-359): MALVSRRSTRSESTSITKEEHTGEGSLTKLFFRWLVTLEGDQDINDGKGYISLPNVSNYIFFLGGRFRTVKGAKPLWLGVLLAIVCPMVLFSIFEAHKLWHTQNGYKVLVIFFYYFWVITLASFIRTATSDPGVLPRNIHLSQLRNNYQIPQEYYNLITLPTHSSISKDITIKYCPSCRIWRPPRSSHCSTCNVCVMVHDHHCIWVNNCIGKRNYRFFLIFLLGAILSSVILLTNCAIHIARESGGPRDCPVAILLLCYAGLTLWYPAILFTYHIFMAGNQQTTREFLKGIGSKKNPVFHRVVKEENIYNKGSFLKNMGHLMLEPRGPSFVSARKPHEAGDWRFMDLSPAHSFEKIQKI
T1 sequence (P41912 1-237 partner): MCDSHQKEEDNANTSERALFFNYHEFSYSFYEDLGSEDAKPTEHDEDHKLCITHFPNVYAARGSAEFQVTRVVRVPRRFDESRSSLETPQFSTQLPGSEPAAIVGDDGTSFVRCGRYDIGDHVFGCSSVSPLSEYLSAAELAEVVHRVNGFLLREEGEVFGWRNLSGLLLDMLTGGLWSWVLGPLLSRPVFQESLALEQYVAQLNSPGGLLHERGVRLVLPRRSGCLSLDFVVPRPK
Description: FIG. 17—Concentration dependent inhibition of yeast PAT activity by acyl-CoAs. Partially purified yeast Erf2p/Erf4p was assayed for PAT activity in the presence of 0.5 μM [^3H]palmitoyl-CoA and the indicated concentrations of unlabeled acyl-CoA substrates as indicated: decanoyl-CoA (C10:0), lauroyl-CoA (C12:0), myristoyl-CoA (C14:0), palmitoyl-CoA (C16:0), palmitoleoyl-CoA (C16:1), stearoyl-CoA (C18:0), and oleoyl-CoA (C18:1). Radiolabeled palmitoylated GST-Ras(HV)CCaaX was excised from the gel and quantitated. Results are expressed as a percent of Ras PAT activity in the absence of competitor (100%).
FIG. 18—Inhibition of Erf2p/Erf4p-dependent PAT by 2-bromopalmitate. Partially purified Erf2p/Erf4p was assayed for palmitoyltransferase activity using GST-Ras(HV)CCaaX (1.33 μM) and 0.5 μM [^3H]palmitoyl-CoA as substrate. Radiolabeled palmitoylated GST-Ras(HV)CCaaX was excised from the gel and quantitated. Results are expressed as a percent of Ras PAT activity in the absence of competitor (100%).
Ras PAT Assays—Ras PAT activity was assayed by measuring the incorporation of tritiated palmitate. [^3H]palmitoyl-CoA substrate was synthesized from [^3H]palmitic acid (NEN) and Coenzyme A using acyl-CoA synthetase (Sigma) and purified as described (Taylor et al., 1990). The PAT assay (25 μl of final volume) was performed by adding 1.5 μg of GST-Ras(HV)CCaaX(2 μM) to GST-Erf4p/FLAG-Erf2p GSH beads in 1 mM DTT, 100 mM MES (pH 6.3). The reaction was started by the addition of 1 μl of [^3H]palmitoyl-CoA (0.5 μM), incubated for 15 min at 30° C., and terminated by the addition of 5 μl of a 5× solution of SDS gel loading buffer without DTT. Heat inactivation was performed by boiling (100° C., 15 min) the GSH beads containing GST-Erf4p/FLAG-Erf2p prior to the addition of substrates. The assays were analyzed by SDS-PAGE using Bis-Tris gels, pH 6.4 (Nu-PAGE®), and subjected to fluorography as described (Mitchell et al., 1994). Quantitation of Ras PAT activity was done by excising Ras protein bands from the gel, solubilizing them in Soluene S-350 (Packard), and counting in a scintillation counter.
The lipid substrate specificity of Ras PAT was investigated by adding increasing amounts of unlabeled acyl-CoA competitors to the radioactive Ras PAT reaction. […] Decanoyl (C10:0) was ineffective at similar concentrations. […] Both saturated and unsaturated fatty acyl-CoAs were effective inhibitors. Little difference was observed between C16:0 and C16:1, or C18:0 and C18:1. The lack of complete acyl-CoA substrate specificity of Ras PAT is consistent with the finding that thioester-linked fatty acids on protein are heterogeneous in vivo (Linder, 2001).
Inhibition of autopalmitoylation or substrate palmitoylation can come about by substrates or substrate analogs. […] The lipid substrate specificity of yeast Erf2p/Erf4p for Ras palmitoylation was investigated by adding increasing amounts of unlabeled acyl-CoA competitors to the radioactive Ras PAT reaction. […] Decanoyl (C10:0) was ineffective at similar concentrations. […] Both saturated and unsaturated fatty acyl-CoAs were effective inhibitors. Little difference was observed between C16:0 and C16:1, or C18:0 and C18:1. The lack of complete acyl-CoA substrate specificity of Ras PAT is consistent with the finding that thioester-linked fatty acids on protein are heterogeneous in vivo (Linder, 2001). […]

PAT = details: reported by Webb et al., 2000; cited from earlier work
Erf2p/Erf4p complex = molecular target: T2, Erf2p/Erf4p complex (Saccharomyces cerevisiae, UniProt Q06551); experiment: Autopalmitoylation of Erf2p, microtiter plate assay with [3H]palmitoyl CoA; format: biochemical, yeast; details: 2-bromopalmitate 16, 63 or 250 μM; 30 minutes at 25 °C; no substrate
T2 construct: FLAG (N); made in house
T2 sequence (Q06551 1-359): T1 sequence (Q06551 1-359)
T2 sequence (P41912 1-237 partner): T1 sequence (P41912 1-237 partner)
Description: FIG. 19—Inhibition of autopalmitoylation of Erf2p. Partially purified […]/GST-Erf4p (2.7 nM) was bound to the well of a GSH coated microtiter plate. The complex was incubated in reaction buffer (122 mM NaCl, 183 mM Tris HCl pH 7.8, 0.6 mM DTT and 0.035% Triton X-100) (registered trademark of Union Carbide Chemicals and Plastics Co., Inc. for a compound of formula C14H22O(C2H4O)n (CAS No. 9002-93-1); hereinafter referred to as “Triton X-100”))in the presence or absence of 2-bromopalmitate (16 .μ.M, 63 .μ.M or 250 .μ.M). The autopalmitoylation reaction was initiated by addition of 5 .μ.l of 3 .μ.M [^ 3H]palmitoyl CoA and the reaction was incubated for 30 minutes at 25 ° C. The wells were washed (3 × 200 .μ.l 20 mM phosphate pH 6 with 1% Triton X-100) and 3 × 200 .μ.l 25% ipa in water. Finally, wash with 2 × 200 .μ.l 20 mM phosphate pH 6 with 150 mM NaCl. The wells were counted in scintillation fluid.
The inventors tested whether 2-BP inhibits autopalmitoylation of yeast Erf2p.

SMILES: CCCCCCCCCCCCCC(=O)SCCNC(=O)CCNC(=O)[C@H](O)C(C)(C)COP(=O)(O)OP(=O)(O)OC[C@H]1O[C@@H](n2cnc3c(N)ncnc32)[C@H](O)[C@@H]1OP(=O)(O)O [myristoyl, myristoyl-CoA]
- effectiveness as competitor of the radioactive Ras PAT reaction (in words) (yeast Erf2p/Erf4p): more effective

SMILES: CCCCCCCCCCCC(=O)SCCNC(=O)CCNC(=O)[C@H](O)C(C)(C)COP(=O)(O)OP(=O)(O)OC[C@H]1O[C@@H](n2cnc3c(N)ncnc32)[C@H](O)[C@@H]1OP(=O)(O)O [Lauryl, lauroyl-CoA]
- effectiveness as competitor of the radioactive Ras PAT reaction (in words) (yeast Erf2p/Erf4p): more effective

SMILES: CCCCCCCCCCCCCCC(Br)C(=O)O (stereo not shown) [2-BP, 2-Bromopalmitate]
- inhibition of PAT activity in vivo (in words) (PAT): inhibit PAT activity in vivo
- inhibition of autopalmitoylation of Erf2p (in words) (Erf2p/Erf4p complex): inhibited in a dose-dependent manner
- inhibition of Erf2/Erf4-dependent PAT activity using yeast Ras2 as a substrate (in words) (yeast Erf2p/Erf4p; increasing concentrations of 2-BP, GST-Ras(HV)CCaaX 1.33 μM): inhibits

SMILES: CCCCCCCCCC(=O)SCCNC(=O)CCNC(=O)[C@H](O)C(C)(C)COP(=O)(O)OP(=O)(O)OC[C@H]1O[C@@H](n2cnc3c(N)ncnc32)[C@H](O)[C@@H]1OP(=O)(O)O [Decanoyl, decanoyl-CoA]
- effectiveness as competitor of the radioactive Ras PAT reaction (in words) (yeast Erf2p/Erf4p): ineffective

SMILES: CCCCCCCCCCCCCCCC(=O)SCCNC(=O)CCNC(=O)[C@H](O)C(C)(C)COP(=O)(O)OP(=O)(O)OC[C@H]1O[C@@H](n2cnc3c(N)ncnc32)[C@H](O)[C@@H]1OP(=O)(O)O [palmitoyl-CoA]
- inhibition of Ras PAT activity by unlabeled acyl-CoA competitor (yeast Erf2p/Erf4p; 8 μM competitor, a 16-fold excess): 90%
